Test results reported in article PMC5216056 (Nature Communications, 2017).
Several values for one entry are separate records, joined by “and”; a condition that tells them apart may be missing. Equal entries are not always repeated. Entries after “also recorded” stand apart in the source; their conditions may differ.

How the values were obtained:
physchem [1] = details: pH 6.5, aqueous buffer, thermodynamic from solid
in vitro [2] = details: male, C57BL/6J, mouse, microsomes, pH 7.4
5-HT1A (h) = biological target: T1, 5-HT1A (h) (Homo sapiens, UniProt P08908); assay: CEREP panel; format: binding
T1 construct: CEREP (contract assay)

5-HT2A (h) = biological target: T2, 5-HT2A (h) (Homo sapiens, UniProt P28223); assay: CEREP panel; format: binding; details: for % inhibition 5-HT2A (h): 10 µM
T2 construct: CEREP (contract assay)

M4 (h) = biological target: T3, M4 (h) (Homo sapiens, UniProt P08173); assay: CEREP panel; format: binding
T3 construct: CEREP (contract assay)

H1 (h) = biological target: T4, H1 (h) (Homo sapiens, UniProt P35367); assay: CEREP panel; format: binding; details: 10 µM
T4 construct: CEREP (contract assay)

H3 (h) = biological target: T5, H3 (h) (Homo sapiens, UniProt Q9Y5N1); assay: CEREP panel; format: binding; details: 10 µM
T5 construct: CEREP (contract assay)

human P-gp = human P-gp (Homo sapiens, UniProt P08183); details: efflux ratio
COX2 (h) = biological target: T6, COX2 (h) (Homo sapiens, UniProt P35354); assay: CEREP panel, enzyme and cell-based assays; format: biochemical; details: 10 µM
T6 construct: CEREP (contract assay)

Cl- channel (GABA-gated) = assay: CEREP panel; format: binding; details: 10 µM
mCB2R [3] = biological target: T7, mCB2R (Mus musculus, UniProt P47936); assay: PathHunter β-arrestin recruitment assay; format: cell-based; details: for Emax: read-out: Emax ± SEM β-AR recruitment mCB2R
mCB2R [4] = biological target: T7, mCB2R; assay: Operational analysis of biased signalling; details: for ΔLogR GTPγS / ΔLogR cAMP / ΔLogR β-AR: reference CP55940; for RE GTPγS / RE cAMP / RE β-AR: relative effectiveness
[5] = phosphate buffer pH 6.5, from DMSO stock
[6] = Pharmacokinetics, oral administration in mice; format: in vivo, mouse
C57BL6/J mice [7] = assay: Triad assay: antinociception; format: in vivo, mouse; details: 1-100 mg kg^−1 i.p., cumulative, mice
C57BL6/J mice [8] = assay: Triad assay: hypothermia; format: in vivo, mouse; details: 1-100 mg kg^−1 i.p., cumulative, mice
B2 (h) = biological target: T8, B2 (h) (Homo sapiens, UniProt P30411); assay: CEREP panel; format: binding
T8 construct: CEREP
T8 sequence (P30411 1-391): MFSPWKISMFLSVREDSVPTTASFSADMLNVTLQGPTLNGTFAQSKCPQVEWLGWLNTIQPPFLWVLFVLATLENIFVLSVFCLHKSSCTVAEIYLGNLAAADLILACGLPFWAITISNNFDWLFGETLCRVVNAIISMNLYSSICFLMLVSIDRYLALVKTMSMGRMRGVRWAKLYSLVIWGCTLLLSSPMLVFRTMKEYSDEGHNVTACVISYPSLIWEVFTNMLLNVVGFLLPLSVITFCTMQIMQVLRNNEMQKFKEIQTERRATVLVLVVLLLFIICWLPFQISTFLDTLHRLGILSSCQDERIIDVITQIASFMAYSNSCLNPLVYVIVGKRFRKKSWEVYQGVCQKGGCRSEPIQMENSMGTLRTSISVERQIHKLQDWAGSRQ

BB = assay: CEREP panel; format: binding; details: 10 µM
MC4 (h) = biological target: T9, MC4 (h) (Homo sapiens, UniProt P32245); assay: CEREP panel; format: binding
T9 construct: CEREP (contract assay)

NOP (ORL1) (h) = biological target: T10, NOP (ORL1) (h) (Homo sapiens, UniProt P41146); assay: CEREP panel; format: binding
T10 construct: CEREP (contract assay)

P2X = assay: CEREP panel; format: binding; details: 10 µM
P2Y = assay: CEREP panel; format: binding; details: 10 µM
CCK1 (CCKA) (h) = biological target: T11, CCK1 (CCKA) (h) (Homo sapiens, UniProt P32238); assay: CEREP panel; format: binding
T11 construct: CEREP (contract assay)

physchem [9] = details: organic solvent or mixture
in vitro [10] = details: human, hepatocytes
in vitro [11] = details: C57BL6, mouse, hepatocytes
[12] = male, C57BL/6J or C57BL/6JRj, mouse, plasma, po, 5 mg/kg

T2 sequence (P28223 whole entry): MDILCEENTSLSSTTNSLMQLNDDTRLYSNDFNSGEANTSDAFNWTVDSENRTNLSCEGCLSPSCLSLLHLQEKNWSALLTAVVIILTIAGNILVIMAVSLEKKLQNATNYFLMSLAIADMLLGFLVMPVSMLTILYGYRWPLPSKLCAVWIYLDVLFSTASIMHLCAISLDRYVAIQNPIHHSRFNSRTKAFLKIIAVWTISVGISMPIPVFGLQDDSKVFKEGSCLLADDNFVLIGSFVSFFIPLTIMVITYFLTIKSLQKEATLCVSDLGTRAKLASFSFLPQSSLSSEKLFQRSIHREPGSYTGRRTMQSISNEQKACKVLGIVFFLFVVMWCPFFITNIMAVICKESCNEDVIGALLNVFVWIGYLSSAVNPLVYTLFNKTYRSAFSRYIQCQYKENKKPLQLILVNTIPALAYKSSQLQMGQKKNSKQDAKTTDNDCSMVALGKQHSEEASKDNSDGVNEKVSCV
Sequence of human P-gp (P08183 whole entry): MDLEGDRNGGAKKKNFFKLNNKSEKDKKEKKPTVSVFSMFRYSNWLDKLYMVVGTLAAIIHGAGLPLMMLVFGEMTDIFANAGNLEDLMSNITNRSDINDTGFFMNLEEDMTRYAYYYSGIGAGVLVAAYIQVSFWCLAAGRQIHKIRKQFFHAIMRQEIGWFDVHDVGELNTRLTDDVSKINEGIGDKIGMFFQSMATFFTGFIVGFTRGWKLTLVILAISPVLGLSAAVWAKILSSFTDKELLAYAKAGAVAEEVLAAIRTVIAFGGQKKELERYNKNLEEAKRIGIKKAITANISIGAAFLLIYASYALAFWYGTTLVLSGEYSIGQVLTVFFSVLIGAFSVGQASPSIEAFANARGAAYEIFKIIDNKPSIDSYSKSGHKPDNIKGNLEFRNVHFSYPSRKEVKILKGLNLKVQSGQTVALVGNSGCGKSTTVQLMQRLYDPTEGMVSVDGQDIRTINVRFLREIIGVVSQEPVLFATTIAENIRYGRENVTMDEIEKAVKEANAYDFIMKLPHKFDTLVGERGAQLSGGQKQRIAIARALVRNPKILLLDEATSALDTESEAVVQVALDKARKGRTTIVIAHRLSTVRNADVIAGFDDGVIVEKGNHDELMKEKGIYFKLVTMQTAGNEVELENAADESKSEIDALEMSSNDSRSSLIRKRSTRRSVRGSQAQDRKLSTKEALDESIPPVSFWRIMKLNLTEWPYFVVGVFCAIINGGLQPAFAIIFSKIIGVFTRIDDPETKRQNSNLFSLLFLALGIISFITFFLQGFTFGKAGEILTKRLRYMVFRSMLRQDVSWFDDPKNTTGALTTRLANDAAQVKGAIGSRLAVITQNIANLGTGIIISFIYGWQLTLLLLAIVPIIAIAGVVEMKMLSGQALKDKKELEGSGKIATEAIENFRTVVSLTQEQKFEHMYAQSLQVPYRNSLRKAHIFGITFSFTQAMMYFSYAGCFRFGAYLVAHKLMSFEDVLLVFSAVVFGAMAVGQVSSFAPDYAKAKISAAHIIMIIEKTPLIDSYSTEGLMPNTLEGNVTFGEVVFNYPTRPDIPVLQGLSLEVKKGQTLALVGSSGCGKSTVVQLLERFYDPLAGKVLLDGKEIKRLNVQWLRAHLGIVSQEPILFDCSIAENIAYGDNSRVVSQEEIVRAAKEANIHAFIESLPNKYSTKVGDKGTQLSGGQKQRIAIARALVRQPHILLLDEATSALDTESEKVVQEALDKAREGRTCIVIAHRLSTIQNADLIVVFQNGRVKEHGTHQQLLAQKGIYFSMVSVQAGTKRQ
T7 sequence (P47936 whole entry): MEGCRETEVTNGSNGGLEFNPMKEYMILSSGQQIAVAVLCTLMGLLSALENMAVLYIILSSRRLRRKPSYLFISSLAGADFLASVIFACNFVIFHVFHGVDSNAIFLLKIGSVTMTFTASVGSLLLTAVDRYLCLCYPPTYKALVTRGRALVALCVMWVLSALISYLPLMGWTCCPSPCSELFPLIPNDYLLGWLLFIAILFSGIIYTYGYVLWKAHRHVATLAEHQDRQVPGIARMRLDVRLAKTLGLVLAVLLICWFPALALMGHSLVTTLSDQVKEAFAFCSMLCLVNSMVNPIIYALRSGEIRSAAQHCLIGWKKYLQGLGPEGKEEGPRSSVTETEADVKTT
T6 sequence (P35354 18-604): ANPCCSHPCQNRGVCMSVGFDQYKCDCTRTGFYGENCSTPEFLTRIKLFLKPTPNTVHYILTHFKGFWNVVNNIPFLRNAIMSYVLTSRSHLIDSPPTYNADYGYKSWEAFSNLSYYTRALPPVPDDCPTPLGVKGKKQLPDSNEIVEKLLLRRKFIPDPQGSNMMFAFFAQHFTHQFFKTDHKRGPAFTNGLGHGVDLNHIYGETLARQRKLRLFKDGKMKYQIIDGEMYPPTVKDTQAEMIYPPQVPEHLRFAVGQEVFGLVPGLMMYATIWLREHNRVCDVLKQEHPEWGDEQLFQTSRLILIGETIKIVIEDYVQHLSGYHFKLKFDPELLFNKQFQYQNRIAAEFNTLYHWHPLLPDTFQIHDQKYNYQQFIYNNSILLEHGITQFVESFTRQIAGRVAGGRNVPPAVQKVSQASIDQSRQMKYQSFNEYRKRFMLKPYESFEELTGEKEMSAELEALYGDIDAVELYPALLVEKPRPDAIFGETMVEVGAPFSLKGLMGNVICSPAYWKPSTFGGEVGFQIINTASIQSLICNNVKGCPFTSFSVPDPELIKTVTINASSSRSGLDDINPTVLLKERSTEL
T10 sequence (P41146 whole entry): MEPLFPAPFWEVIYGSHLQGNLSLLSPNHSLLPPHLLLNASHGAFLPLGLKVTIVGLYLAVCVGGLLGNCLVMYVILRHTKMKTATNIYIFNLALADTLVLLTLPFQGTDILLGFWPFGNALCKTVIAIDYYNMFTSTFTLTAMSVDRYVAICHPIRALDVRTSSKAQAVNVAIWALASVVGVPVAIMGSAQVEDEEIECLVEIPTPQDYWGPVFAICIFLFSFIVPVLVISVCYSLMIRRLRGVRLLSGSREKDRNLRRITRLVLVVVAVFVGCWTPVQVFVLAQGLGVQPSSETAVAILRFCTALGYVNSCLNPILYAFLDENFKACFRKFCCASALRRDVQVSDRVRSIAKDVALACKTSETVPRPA
T9 sequence (P32245 whole entry): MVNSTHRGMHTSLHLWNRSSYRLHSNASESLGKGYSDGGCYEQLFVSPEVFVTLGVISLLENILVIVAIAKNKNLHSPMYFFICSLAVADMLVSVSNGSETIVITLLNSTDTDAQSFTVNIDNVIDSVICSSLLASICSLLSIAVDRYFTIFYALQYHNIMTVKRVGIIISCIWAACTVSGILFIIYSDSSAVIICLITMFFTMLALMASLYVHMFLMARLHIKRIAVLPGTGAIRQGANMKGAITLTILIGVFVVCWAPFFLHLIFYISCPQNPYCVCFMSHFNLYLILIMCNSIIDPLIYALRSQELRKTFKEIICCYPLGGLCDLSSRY
T1 sequence (P08908 whole entry): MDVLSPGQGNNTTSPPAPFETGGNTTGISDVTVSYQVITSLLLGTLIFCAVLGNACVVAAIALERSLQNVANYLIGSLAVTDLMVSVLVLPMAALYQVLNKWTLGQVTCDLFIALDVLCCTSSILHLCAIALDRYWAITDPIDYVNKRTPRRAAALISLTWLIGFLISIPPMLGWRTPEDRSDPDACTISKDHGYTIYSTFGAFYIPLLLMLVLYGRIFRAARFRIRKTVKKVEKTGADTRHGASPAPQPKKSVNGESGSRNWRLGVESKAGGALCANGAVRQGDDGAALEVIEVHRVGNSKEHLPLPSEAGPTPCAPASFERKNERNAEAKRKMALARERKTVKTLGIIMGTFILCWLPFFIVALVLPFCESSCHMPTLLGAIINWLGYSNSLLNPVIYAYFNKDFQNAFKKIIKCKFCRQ
T3 sequence (P08173 whole entry): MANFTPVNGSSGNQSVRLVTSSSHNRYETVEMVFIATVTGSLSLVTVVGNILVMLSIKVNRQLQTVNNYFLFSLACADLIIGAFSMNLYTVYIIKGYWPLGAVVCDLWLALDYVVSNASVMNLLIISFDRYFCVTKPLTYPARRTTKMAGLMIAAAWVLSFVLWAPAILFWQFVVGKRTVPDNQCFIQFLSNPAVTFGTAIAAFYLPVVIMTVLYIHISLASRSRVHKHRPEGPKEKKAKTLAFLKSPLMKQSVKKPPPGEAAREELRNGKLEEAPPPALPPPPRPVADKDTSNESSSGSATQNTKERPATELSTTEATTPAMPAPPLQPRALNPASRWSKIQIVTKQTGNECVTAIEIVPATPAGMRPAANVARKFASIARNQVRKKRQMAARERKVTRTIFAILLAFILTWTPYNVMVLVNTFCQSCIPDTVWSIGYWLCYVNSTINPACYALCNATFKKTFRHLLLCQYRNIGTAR
T11 sequence (P32238 whole entry): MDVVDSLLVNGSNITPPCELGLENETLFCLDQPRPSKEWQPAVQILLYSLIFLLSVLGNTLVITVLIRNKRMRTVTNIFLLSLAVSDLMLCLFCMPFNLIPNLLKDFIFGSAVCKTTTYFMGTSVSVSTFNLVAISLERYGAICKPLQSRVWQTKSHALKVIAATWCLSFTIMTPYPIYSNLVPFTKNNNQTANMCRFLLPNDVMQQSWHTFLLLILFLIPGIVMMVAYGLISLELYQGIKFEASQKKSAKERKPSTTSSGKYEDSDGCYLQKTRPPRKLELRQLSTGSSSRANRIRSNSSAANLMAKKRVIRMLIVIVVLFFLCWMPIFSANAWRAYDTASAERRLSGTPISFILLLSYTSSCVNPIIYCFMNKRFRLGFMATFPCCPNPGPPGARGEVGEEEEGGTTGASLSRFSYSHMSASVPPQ

With `CCCCC/C=C\C/C=C\C/C=C\C/C=C\CCCC(=O)OC(CO)CO` [2-AG, 2-arachidonoyl glycerol] the solubility kinetic (physchem [1]) was < 0.5 µg/mL and < 1.3 µM and the microsomal CLint (in vitro [2]) was 12 µL/min/mg.
In the case of `CN1CCCC[C@H]1Cn1cc(C(=O)c2cc([N+](=O)[O-])ccc2I)c2ccccc21` [(S)-AM1241], the “% inhibition 5-HT1A (h)” value (5-HT1A (h); 10 µM) is reported as 74%, the “% inhibition 5-HT2A (h)” value (5-HT2A (h)) is reported as 67% and the “% inhibition M4 (h)” value (M4 (h); 10 µM) is reported as 74%. The “% inhibition H1 (h)” value (H1 (h)) was 78%, the “% inhibition H3 (h)” value (H3 (h)) was 87% and the “Plasma protein binding human” value was 0.5 %free. The “P-gp (ER) human” value (human P-gp) was 2.7.
For `COc1ccc(C(=O)c2c(C)n(CCN3CCOCC3)c3cc(I)ccc23)cc1` [AM630], the “% inhibition 5-HT2A (h)” value (5-HT2A (h)) was 70%, the “% inhibition COX2 (h)” value (COX2 (h)) was 96% and the “% inhibition Cl- channel (GABA-gated)” value (Cl- channel (GABA-gated)) was 87%. The “P-gp (ER) human” value (human P-gp) was 1.3.
With `CCCCC/C=C\C/C=C\C/C=C\C/C=C\CCCC(=O)NCCO` [Anandamide, N-arachidonoylethanolamine] the solubility kinetic (physchem [1]) was < 1.1 µg/mL and < 3.2 µM and the microsomal CLint (in vitro [2]) was 222 µL/min/mg.
For `CCCCCCC(C)(C)c1ccc([C@@H]2C[C@H](O)CC[C@H]2CCCO)c(O)c1` [CP55940], the EC50 (mCB2R [3]) was 9.55 nM, the Emax (mCB2R [3]) was 96 ± 1% and the “GTPγS-cAMP bias factor (BF)” value (mCB2R [4]) was 1. For the same compound, the “GTPγS-cAMP ΔΔlogR” value (mCB2R [4]) was 0 ± 0.21, the “LogR GTPγS” value (mCB2R [4]) was 7.82 ± 0.05 and the “LogR cAMP” value (mCB2R [4]) was 10.52 ± 0.14. The “LogR β-AR” value (mCB2R [4]) was 8.0 ± 0.06, the “β-AR-GTPγS bias factor (BF)” value (mCB2R [4]) was 1 and the “β-AR-GTPγS ΔΔlogR” value (mCB2R [4]) was 0 ± 0.10. For the same compound, the “β-AR-cAMP bias factor (BF)” value (mCB2R [4]) was 1, the “β-AR-cAMP ΔΔlogR” value (mCB2R [4]) was 0 ± 0.21 and the “ΔLogR GTPγS” value (mCB2R [4]) was 0 ± 0.07. For the same compound, the “ΔLogR cAMP” value (mCB2R [4]) was 0 ± 0.20, the “ΔLogR β-AR” value (mCB2R [4]) was 0 ± 0.08 and the “RE GTPγS” value (mCB2R [4]) was 1.00. For the same compound, the “RE cAMP” value (mCB2R [4]) was 1.00, the “RE β-AR” value (mCB2R [4]) was 1.00 and the inhibition at 10 µM (5-HT1A (h)) was 92%. For the same compound, the inhibition at 10 µM (5-HT2A (h)) was 95%, the inhibition at 10 µM (M4 (h)) was 55% and the Kinetic solubility [5] was “soluble”. For the same compound, the microsomal CLint (in vitro [2]) was 172 µL/min/mg.
For `Cc1ccc2c(c1)Cc1c(C(=O)NN3CCCCC3)nn(-c3ccc(Cl)cc3Cl)c1-2` [Gp-1a], the “P-gp (ER) human” value (human P-gp) was 1.0.
In the case of `CCCCCCC(C)(C)c1cc(OC)c([C@@H]2C=C(CO)[C@@H]3C[C@H]2C3(C)C)c(OC)c1` [HU308], the EC50 (mCB2R [3]) is reported as 339 nM, the Emax (mCB2R [3]) is reported as 69 ± 3% and the “GTPγS-cAMP bias factor (BF)” value (mCB2R [4]) is reported as 25.8. The “GTPγS-cAMP ΔΔlogR” value (mCB2R [4]) was 1.41 ± 0.27, the “LogR GTPγS” value (mCB2R [4]) was 6.77 ± 0.05 and the “LogR cAMP” value (mCB2R [4]) was 8.07 ± 0.22. The “LogR β-AR” value (mCB2R [4]) was 6.22 ± 0.10, the “β-AR-GTPγS bias factor (BF)” value (mCB2R [4]) was 0.19 and the “β-AR-GTPγS ΔΔlogR” value (mCB2R [4]) was -0.72 ± 0.13. For the same compound, the “β-AR-cAMP bias factor (BF)” value (mCB2R [4]) was 4.9, the “β-AR-cAMP ΔΔlogR” value (mCB2R [4]) was 0.69 ± 0.28 and the “ΔLogR GTPγS” value (mCB2R [4]) was -1.04 ± 0.07. The “ΔLogR cAMP” value (mCB2R [4]) was -2.46 ± 0.26, the “ΔLogR β-AR” value (mCB2R [4]) was -1.77 ± 0.12 and the “RE GTPγS” value (mCB2R [4]) was 0.09. For the same compound, the “RE cAMP” value (mCB2R [4]) was 0.004, the “RE β-AR” value (mCB2R [4]) was 0.02 and the AUC(0-inf) [6, 12] was 298 ng·h/mL. It also gave an AUC(0-t) [6, 12] of 253 ng·h/mL, a half-life [6, 12] of 3.3 h and a Cmax ([6]; male, C57BL/6J or C57BL/6JRj, mouse, plasma, po, 5 mg/kg, p.o., read-out: Cmax) of 201 ng/mL. The Tmax ([6]; male, C57BL/6J or C57BL/6JRj, mouse, plasma, po, 5 mg/kg, p.o., read-out: Tmax) was 0.5 h, the AUCinf/dose ([6]; p.o.) was 59.7 kg·ng·h/mL/mg and the “antinociception, cannabimimetic effect” value (C57BL6/J mice [7]) was “did not produce detectable; also recorded: lacked appreciable pharmacological effects”. The “hypothermia, cannabimimetic effect” value (C57BL6/J mice [8]) was “did not produce detectable; also recorded: lacked appreciable pharmacological effects”, the inhibition at 10 µM (B2 (h); read-out: % inhibition B2 (h)) was -21% and the “% inhibition BB” value (BB) was 3%. For the same compound, the inhibition at 10 µM (MC4 (h); read-out: % inhibition MC4 (h)) was 1%, the inhibition at 10 µM (NOP (ORL1) (h); read-out: % inhibition NOP (ORL1) (h)) was -5% and the “% inhibition P2X” value (P2X) was 2%. For the same compound, the “% inhibition P2Y” value (P2Y) was 1%, the inhibition at 10 µM (CCK1 (CCKA) (h)) was 75% and the solubility kinetic (physchem [1]) was < 0.75 µg/mL and < 1.8 µM. The solubility (physchem [9]) was 2.06 µg/mL and 5 µM, the hepatocyte CLint (in vitro [10]) was 8.3 µL/min/1e6 cells and the hepatocyte CLint (in vitro [11]) was 4.7 µL/min/1e6 cells.
With `CCCn1c(C)c(C(=O)c2cccc3ccccc23)c2ccccc21` [JWH015] the “% inhibition 5-HT2A (h)” value (5-HT2A (h)) was 56%.
With `CCCC(C)(C)c1ccc2c(c1)OC(C)(C)[C@@H]1CC=C(C)C[C@@H]21` [JWH133] the “pEC50 ± SEM β-AR recruitment mCB2R” value (mCB2R [3]) was 6.80 ± 0.17, the “Emax ± SEM β-AR recruitment mCB2R” value (mCB2R [3]; normalized to 10 µM CP55940) was 63 ± 7% and the “GTPγS-cAMP bias factor (BF)” value (mCB2R [4]) was 50.9. For the same compound, the “GTPγS-cAMP ΔΔlogR” value (mCB2R [4]) was 1.71 ± 0.18, the “LogR GTPγS” value (mCB2R [4]) was 7.07 ± 0.05 and the “LogR cAMP” value (mCB2R [4]) was 8.07 ± 0.09. The “LogR β-AR” value (mCB2R [4]) was 6.57 ± 0.12, the “β-AR-GTPγS bias factor (BF)” value (mCB2R [4]) was 0.21 and the “β-AR-GTPγS ΔΔlogR” value (mCB2R [4]) was -0.67 ± 0.15. For the same compound, the “β-AR-cAMP bias factor (BF)” value (mCB2R [4]) was 10.9, the “β-AR-cAMP ΔΔlogR” value (mCB2R [4]) was 1.04 ± 0.21 and the “ΔLogR GTPγS” value (mCB2R [4]) was -0.75 ± 0.07. For the same compound, the “ΔLogR cAMP” value (mCB2R [4]) was -2.45 ± 0.17, the “ΔLogR β-AR” value (mCB2R [4]) was -1.42 ± 0.13 and the “RE GTPγS” value (mCB2R [4]) was 0.18. For the same compound, the “RE cAMP” value (mCB2R [4]) was 0.004, the “RE β-AR” value (mCB2R [4]) was 0.04 and the “antinociception, cannabimimetic effect” value (C57BL6/J mice [7]) was “did not produce detectable; also recorded: lacked appreciable pharmacological effects”. For the same compound, the “hypothermia, cannabimimetic effect” value (C57BL6/J mice [8]) was “did not produce detectable; also recorded: lacked appreciable pharmacological effects”, the “% inhibition B2 (h)” value (B2 (h); 10 µM) was -2% and the “% inhibition BB” value (BB) was 0%. The “% inhibition MC4 (h)” value (MC4 (h); 10 µM) was -10%, the “% inhibition NOP (ORL1) (h)” value (NOP (ORL1) (h); 10 µM) was -5% and the “% inhibition P2X” value (P2X) was -5%. The “% inhibition P2Y” value (P2Y) was 3%.
In the case of `Cc1c(C(=O)c2cccc3ccccc23)c2cccc3c2n1[C@H](CN1CCOCC1)CO3` [WIN55212-2], the “% inhibition COX2 (h)” value (COX2 (h)) is reported as 50%.
